# In paper PMC10743905, “Design, Synthesis, and In Vitro and In Vivo Bioactivity Studies of Hydrazide–Hydrazones of 2,4-Dihydroxybenzoic Acid” (International Journal of Molecular Sciences, 2023):
# Tested on: Staphylococcus aureus ATCC 43300
# Experiment: Broth microdilution MIC/MBC
# Format: cell-based
# Details: Staphylococcus aureus ATCC 43300 (MRSA)
# Source text: (§1) In vitro antimicrobial activity assays - Methodology
# (§2) The examined compounds 1 - 24 were screened in vitro for antibacterial and antifungal activities using the broth microdilution method according to procedure reported earlier by our research group and European Committee on Antimicrobial Susceptibility Testing (EUCAST) and Clinical and Laboratory Standards Institute (CLSI) guidelines against a panel of reference and clinical or saprophytic strains of microorganisms, in-cluding Gram-positive bacteria, Staphylococcus aureus ATCC 43300 (Methicillin Resistant S. aureus – MRSA), Staphylococcus aureus ATCC 29213 (Methicillin Susceptible S. aureus – MSSA), Staphylococcus epidermidis ATCC 12228, Enterococcus faecalis ATCC 29212, Micro-coccus luteus ATCC 10240, Bacillus subtilis ATCC 6633 and Bacillus cereus ATCC 10876), Gram-negative bacteria (Bordetella bronchiseptica ATCC 4617, Escherichia coli ATCC 25922, Klebsiella pneumoniae ATCC 13883, Proteus mirabilis ATCC 12453, Salmonella typhimurium ATCC 14028 and Pseudomonas aeruginosa ATCC 9027) and fungi belonging to yeasts (Can-dida albicans ATCC 10231, Candida albicans ATCC 2091, Candida parapsilosis ATCC 22019, Candida glabrata ATCC 90030 and Candida krusei ATCC 14243). The microorganisms be-longing to ATCC came from American Type Culture Collection, routinely used for the evaluation of antimicrobials. […]
# (§3) Samples containing examined compounds were dissolved in dimethyl sulfoxide (DMSO). […]
# (§4) Subsequently, the MIC (Minimal Inhibitory Concentration) of the compounds was ex-amined by the microdilution broth method, using their two-fold dilutions in Mueller- […]
# (§5) Hinton broth or (for bacteria) and RPMI 1640 broth with MOPS (for fungi) prepared in 96-well polystyrene plates. Final concentrations of the compounds ranged from 1000 to 0.488 µg/ml. Microbial suspensions were prepared in 0.85% NaCl with an optical density of 0.5 McFarland standard. Next each bacterial or fungal suspension was added per each well containing broth and various concentrations of the examined compounds. After incuba-
SMILES,MBC/MIC,MIC [µg/mL]
"O=C(N/N=C/c1ccc(O)c(Br)c1)c1ccc(O)cc1O [Compound 11, N-[(3-bromo-4-hydroxyphenyl)methylidene]-2,4-dihydroxybenzohydrazide]",2,500

# Tested on: Micrococcus luteus ATCC 10240
# Experiment: Broth microdilution MIC/MBC
# Format: cell-based
# Details: not given
# Source text: as §1, §2, §3, §4, §5
row,SMILES,MBC/MIC
1,"O=C(N/N=C/c1ccc(O)c(Br)c1)c1ccc(O)cc1O [Compound 11, N-[(3-bromo-4-hydroxyphenyl)methylidene]-2,4-dihydroxybenzohydrazide]",> 8

# Same assay, conditions: ATCC10240
row,SMILES,MBC [µg/mL]
1,"O=C(N/N=C/c1ccc(O)c(Br)c1)c1ccc(O)cc1O [Compound 11, N-[(3-bromo-4-hydroxyphenyl)methylidene]-2,4-dihydroxybenzohydrazide]",> 1000

# Same assay, conditions: ATCC10240, read-out: MIC
row,SMILES,MIC [µg/mL]
1,"O=C(N/N=C/c1ccc(O)c(Br)c1)c1ccc(O)cc1O [Compound 11, N-[(3-bromo-4-hydroxyphenyl)methylidene]-2,4-dihydroxybenzohydrazide]",125

# Tested on: Salmonella typhimurium ATCC 14028
# Experiment: Broth microdilution MIC/MBC
# Format: cell-based
# Details: Salmonella enterica
# Source text: as §1, §2, §3, §4, §5
row,SMILES,MIC [µg/mL]
1,"O=C(N/N=C/c1ccc(O)c(Br)c1)c1ccc(O)cc1O [Compound 11, N-[(3-bromo-4-hydroxyphenyl)methylidene]-2,4-dihydroxybenzohydrazide]",> 1000

# Tested on: Staphylococcus epidermidis ATCC 12228
# Experiment: Broth microdilution MIC/MBC
# Format: cell-based
# Details: not given
# Source text: as §1, §2, §3, §4, §5
row,SMILES,MBC/MIC
1,"O=C(N/N=C/c1ccc(O)c(Br)c1)c1ccc(O)cc1O [Compound 11, N-[(3-bromo-4-hydroxyphenyl)methylidene]-2,4-dihydroxybenzohydrazide]",2

# Same assay, conditions: ATCC12228
row,SMILES,MBC [µg/mL]
1,"O=C(N/N=C/c1ccc(O)c(Br)c1)c1ccc(O)cc1O [Compound 11, N-[(3-bromo-4-hydroxyphenyl)methylidene]-2,4-dihydroxybenzohydrazide]",1000

# Same assay, conditions: ATCC12228, read-out: MIC
row,SMILES,MIC [µg/mL]
1,"O=C(N/N=C/c1ccc(O)c(Br)c1)c1ccc(O)cc1O [Compound 11, N-[(3-bromo-4-hydroxyphenyl)methylidene]-2,4-dihydroxybenzohydrazide]",500

# Tested on: Pseudomonas aeruginosa ATCC 9027
# Experiment: Broth microdilution MIC/MBC
# Format: cell-based
# Details: ATCC9027
# Source text: as §1, §2, §3, §4, §5
row,SMILES,MIC [µg/mL]
1,"O=C(N/N=C/c1ccc(O)c(Br)c1)c1ccc(O)cc1O [Compound 11, N-[(3-bromo-4-hydroxyphenyl)methylidene]-2,4-dihydroxybenzohydrazide]",> 1000

# Tested on: Proteus mirabilis ATCC 12453
# Experiment: Broth microdilution MIC/MBC
# Format: cell-based
# Details: ATCC12453
# Source text: as §1, §2, §3, §4, §5
row,SMILES,MIC [µg/mL]
1,"O=C(N/N=C/c1ccc(O)c(Br)c1)c1ccc(O)cc1O [Compound 11, N-[(3-bromo-4-hydroxyphenyl)methylidene]-2,4-dihydroxybenzohydrazide]",> 1000

# Tested on: Staphylococcus aureus ATCC 29213
# Experiment: Broth microdilution MIC/MBC
# Format: cell-based
# Details: not given
# Source text: as §1, §2, §3, §4, §5
row,SMILES,MBC/MIC
1,"O=C(N/N=C/c1ccc(O)c(Br)c1)c1ccc(O)cc1O [Compound 11, N-[(3-bromo-4-hydroxyphenyl)methylidene]-2,4-dihydroxybenzohydrazide]",> 4

# Same assay, conditions: ATCC29213
SMILES,MBC [µg/mL],MIC [µg/mL]
"O=C(N/N=C/c1ccc(O)c(Br)c1)c1ccc(O)cc1O [Compound 11, N-[(3-bromo-4-hydroxyphenyl)methylidene]-2,4-dihydroxybenzohydrazide]",> 1000,250

# Tested on: Bacillus subtilis ATCC 6633
# Experiment: Broth microdilution MIC/MBC
# Format: cell-based
# Details: not given
# Source text: Detailed procedures are presented in the Supplementary Materials. […]
# as §1
# as §2, with “antimicrobials. All the used microbial cultures were first subcultured on nu-trient agar or Sabouraud agar at 35°C for 18-24 h or 30°C for 24-48 h for bacteria and fungi,” for “antimicrobials.”
# The surface of Mueller-Hinton agar (for bacteria) and RPMI 1640 with MOPS (for fungi) were inoculated with the suspensions of bacterial or fungal species. Microbial suspensions were prepared in sterile saline with an optical density of McFarland standard scale 0.5.
# Samples containing examined compounds were dissolved in dimethyl sulfoxide (DMSO).
# Furthermore, bacterial and fungal suspensions were put onto Petri dishes with solid me-dia containing 2 mg/mL of the tested compounds followed incubation at 37°C for 24h and 30°C for 48h for bacteria and fungi, respectively. The inhibition of microbial growth was judged by comparison with a control culture prepared without any sample tested. Ciprof-loxacin, vancomycin, nitrofurantoin, cefuroxime, ampicillin or nystatin (Sigma) were used as a reference antibacterial or antifungal compounds, respectively.
# as §4, §5
row,SMILES,MBC/MIC
1,"O=C(N/N=C/c1ccc(O)c(Br)c1)c1ccc(O)cc1O [Compound 11, N-[(3-bromo-4-hydroxyphenyl)methylidene]-2,4-dihydroxybenzohydrazide]",> 2

# Same assay, conditions: ATCC6633
row,SMILES,MBC [µg/mL]
1,"O=C(N/N=C/c1ccc(O)c(Br)c1)c1ccc(O)cc1O [Compound 11, N-[(3-bromo-4-hydroxyphenyl)methylidene]-2,4-dihydroxybenzohydrazide]",> 1000

# Same assay, conditions: ATCC6633, read-out: MIC
row,SMILES,MIC [µg/mL]
1,"O=C(N/N=C/c1ccc(O)c(Br)c1)c1ccc(O)cc1O [Compound 11, N-[(3-bromo-4-hydroxyphenyl)methylidene]-2,4-dihydroxybenzohydrazide]",500
